Test results reported in patent publication US20240002394A1, “DEUTERIUM-MODIFIED THIENOPYRIDONE COMPOUND” (Chia Tai Tianqing Pharmaceutical Group Co., Ltd., priority 2020, published 2024).

Tests used:
[1] = In vitro liver microsomal stability (HLM); format: in vitro ADME, human
Method: (§1) Preparation of liver microsome incubated samples: PBS buffer (pH 7.4), liver microsome solutions (0.5 mg/mL; HLM and MLM, respectively), the test compounds and NADPH+MgCl2 solution were mixed and incubated at 37° C. at 300 rpm for 1 h. Preparation of zero-hour samples: PBS buffer (pH 7.4), liver microsome solutions (0.5 mg/mL; HLM and MLM, respectively) and the test compounds were mixed. An acetonitrile solution containing internal standard was added to the samples, and supernatants were prepared by protein precipitation, diluted and then analyzed by LC/MS/MS.

HPK1 = HPK1 (Homo sapiens (Human), UniProt Q92918); experiment: Assay for in vitro inhibitory activity against HPK1 kinase; format: biochemical; conditions: ATP 0.1 mM; HTRF, STK Substrate 1-biotin; read-out: In vitro inhibitory activity against enzyme HPK1 IC50
Method: The kinase buffer (Enzymatic buffer 5×) was diluted to 1×, and 10 mM MgCl2, 1 mM DTT, and 0.005% Tween 20 were added. The 100 ng/μL HPK1 (Life technology) stock solution was diluted with the kinase buffer to obtain a 1.67×, 1.67 ng/μL working solution (final concentration: 1 ng/μL), and the working solution was seeded in a 384-well plate at 6 μL/well. Different compounds dissolved in DMSO were added to the wells using a nanoliter pipettor to final concentrations of 1000 nM to 0.244 nM (4-fold serial dilution, 7 concentrations in total), and blank control wells (without enzyme) and negative control wells (with enzyme, plus vehicle DMSO) were set; the wells were set in duplicate. After the enzyme and compounds were incubated at room temperature for 1 h, a 5×, 0.5 mM ATP dilution (final concentration: 0.1 mM) in the kinase buffer was mixed with a 5×, 2.5 μM substrate (Cisbio, STK Substrate 1-biotin; final concentration: 500 nM) in equal volume, and the mixture was added to each well at 4 μL/well. The plate was sealed with a film and then incubated at room temperature for 2 h. An assay antibody solution was prepared by mixing the antibody STK Antibody-cryptate (Cisbio, 5 μL/test) and a 4×, 500 nM Streptavidin-XL665 (Cisbio; final concentration: 125 nM) in equal volume and was added to each well at 10 μL/well, and the plate was incubated at room temperature for 1 h. The signal values ([…]) were measured using a PE Envision multi-functional microplate reader, and IC50 was calculated by four-parameter fitting.

[2] = In vitro liver microsomal stability (MLM); format: in vitro ADME, mouse
Method: as §1

[3] = test system: Jurkat cell p-SLP76 phosphorylation; experiment: Assay for Jurkat cell p-SLP76 phosphorylation inhibitory activity; format: cell-based; conditions: Homo sapiens, 0.5 h; Jurkat cells, CD3CD28 stimulation 30 min; read-out: Jurkat cell p-SLP76 phosphorylation inhibition IC50
Method: The Jurkat cells in a good growth state were added to a centrifuge tube, centrifuged, and resuspended. The cell density was adjusted to 6.25×10^6 cells/mL, and the cells were seeded in a 384-well small-volume white plate at 8 μL/well. Compounds were added in duplicate using a nanoliter pipettor to final concentrations of 2500 nM to 10.29 nM and a control was set. After 1 h of cell culture, the stimulator CD3CD28 (4 μL; manufacturer: Stemcell) was added and the cells were incubated at 37° C. for 30 min. 3 μL of lysis buffer (manufacturer: BioAuxilium) was added to each well, and the plate was shaken at room temperature for 30 min. After the lysate was well mixed, 5 μL of pre-mixed antibody (manufacturer: BioAuxilium) in assay buffer was added and the plate was incubated overnight at room temperature. The signal values were measured on a PerkinElmer Envision multi-functional microplate reader (excitation: 320 nm, emission: 615 nm/665 nm), and IC50 was calculated by four-parameter fitting.

[4] = HLM 0.5 mg/mL, 37° C., NADPH, 60 min
[5] = MLM 0.5 mg/mL, 37° C., NADPH, 60 min

Sequence of HPK1 (Q92918 whole entry): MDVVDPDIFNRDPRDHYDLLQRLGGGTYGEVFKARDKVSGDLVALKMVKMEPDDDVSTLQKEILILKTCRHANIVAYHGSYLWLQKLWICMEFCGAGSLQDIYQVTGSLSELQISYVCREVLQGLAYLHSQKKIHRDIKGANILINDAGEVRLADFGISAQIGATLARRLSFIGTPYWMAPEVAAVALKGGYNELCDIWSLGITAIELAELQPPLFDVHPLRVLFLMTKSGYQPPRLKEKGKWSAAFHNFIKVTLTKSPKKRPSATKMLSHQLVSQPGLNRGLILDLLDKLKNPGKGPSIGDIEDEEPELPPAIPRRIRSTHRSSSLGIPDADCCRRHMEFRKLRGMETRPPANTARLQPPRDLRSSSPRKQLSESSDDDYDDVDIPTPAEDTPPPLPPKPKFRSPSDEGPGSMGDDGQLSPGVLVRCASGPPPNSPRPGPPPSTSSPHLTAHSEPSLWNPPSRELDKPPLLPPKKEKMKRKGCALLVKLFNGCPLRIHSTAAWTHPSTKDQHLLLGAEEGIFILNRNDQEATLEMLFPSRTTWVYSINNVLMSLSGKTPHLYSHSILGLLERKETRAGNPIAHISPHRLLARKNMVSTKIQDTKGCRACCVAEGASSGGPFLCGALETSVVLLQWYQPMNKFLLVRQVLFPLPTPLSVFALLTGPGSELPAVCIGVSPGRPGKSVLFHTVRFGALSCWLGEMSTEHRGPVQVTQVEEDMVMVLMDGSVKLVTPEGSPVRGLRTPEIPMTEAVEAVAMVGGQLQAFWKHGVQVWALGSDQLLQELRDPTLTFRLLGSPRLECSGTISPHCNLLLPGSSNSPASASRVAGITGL

SMILES	HLM (0.5 mg/mL) Remaining percentage (T = 60 min) ([1]; human, microsomes, 1 h, pH 7.4)	IC50 (HPK1)	MLM (0.5 mg/mL) Remaining percentage (T = 60 min) ([2]; mouse, microsomes, 1 h, pH 7.4)	IC50 [3]	HLM (0.5 mg/mL) Remaining percentage (T = 60 min) [1, 4]	MLM (0.5 mg/mL) Remaining percentage (T = 60 min) [2, 5]
[2H]C1([2H])CN(C)CC([2H])([2H])N1c1ccc2[nH]c(-c3c(N)c4ccsc4[nH]c3=O)nc2c1 [Example 4, 4-amino-5-(5-(4-methylpiperazin-1-yl-2,2,6,6-d4)-1H-benzo[d]imidazol-2-yl)thieno[2,3-b]pyridin-6(7H)-one]	88.50%	9.2 nM	42.58%	83 nM		
[2H]C1([2H])N(C)C([2H])([2H])C([2H])([2H])N(c2ccc3[nH]c(-c4c(N)c5ccsc5[nH]c4=O)nc3c2)C1([2H])[2H] [Example 2, 4-amino-5-(5-(4-methylpiperazin-1-yl-2,2,3,3,5,5,6,6-d8)-1H-benzo[d]imidazol-2-yl)thieno [2,3-b]pyridin-6(7H)-one]		9.7 nM			89.66%	45.97%
[2H]c1cc2c(N)c(-c3nc4c([2H])c(N5CCN(C)CC5)c([2H])cc4[nH]3)c(=O)[nH]c2s1 [Example 5, 4-amino-5-(5-(4-methylpiperazin-1-yl)-1H-benzo[d]imidazol-2-yl-4,6-d2)thieno[2,3-b]pyridin-6(7H)-one-2-d]		8.8 nM		53 nM		
[2H]C1([2H])CN(c2ccc3[nH]c(-c4c(N)c5ccsc5[nH]c4=O)nc3c2)CC([2H])([2H])N1C [Example 3, 4-amino-5-(5-(4-methylpiperazin-1-yl-3,3,5,5-d4)-1H-benzo[d]imidazol-2-yl)thieno[2,3-b]pyridin-6(7H)-one]		7.5 nM			90.85%	45.47%
